Values of other authors, collected in patent publication US20220287964A1, “TOPICAL FORMULATIONS COMPRISING CANNABIDIOL, METHOD OF PREP ARING THE COMPOSITION AND USE THEREOF” (CS Medica A/S, priority 2019, published 2022).

Conditions: oral administration, given for comparison; cited from earlier work

Compound: C=C(C)[C@@H]1CCC(C)=C[C@H]1c1c(O)cc(CCCCC)cc1O [cannabidiol, Cannabidiol]
- Absorbed through the gastrointestinal passage: less than 10%
